Results reported in US12409179B2 (GENEROS BIOPHARMA LTD., priority 2019, dated 2025).

How the values were obtained:
[1] = tested on: adjuvant-induced arthritis in rats; assay: Embodiment 3: oral Nib1 and methotrexate in adjuvant-induced arthritis in rats (joint score, paw volume, AUC); assay type: in vivo, Lewis rat; settings: for Area under the curve AUC (ml*day) of changes in paw volume / Clinical scoring of arthritis (sum of the scores of the quadrupedal joints), Average value / volume of the right hind foot, Average value / Relative to G2 percentage (%) (AUC of changes in paw volume): oral, Tofacitinib 5 mpk, MTX 0.05 mpk, Nib1 1 mpk, Nib1 1 mpk + MTX 0.05 mpk; for Relative to G2 percentage (%) (AUC of changes in paw volume): G2 = Vehicle
[2] = tested on: rat adjuvant-induced arthritis model; assay: Embodiment 2: oral Nib1 and medium-dose methotrexate in rat adjuvant-induced arthritis model (joint score, paw volume, AUC); assay type: in vivo, Lewis rat; settings: MTX 0.5 mpk, Nib1 5 mpk, Nib1 5 mpk + MTX 0.5 mpk; for Total area (AUC of changes in paw volume): Embodiment 2, Tofacitinib 5 mpk, in mL·day; for Relative to G2 percentage (%) (AUC of changes in paw volume): Embodiment 2, G2 = Vehicle, Tofacitinib 5 mpk
[3] = tested on: rheumatoid arthritis; settings: cited from earlier work
[4] = tested on: Lewis rat adjuvant-induced arthritis model; assay: Embodiment 1: oral Nib1 and injected methotrexate in Lewis rat adjuvant-induced arthritis model (joint score, paw volume, AUC); assay type: in vivo
[5] = rat, in vivo
[6] = rat, in vivo, po, 10 mg/kg

In the case of `CN(Cc1cnc2nc(N)nc(N)c2n1)c1ccc(C(=O)N[C@@H](CCC(=O)O)C(=O)O)cc1` [MTX, Methotrexate], the “Area under the curve AUC (ml*day) of changes in paw volume” value (shortened to “Area … (ml*day) of changes in paw volume”) ([1]; Embodiment 3) was 19.31 mL·days, the “Clinical scoring of arthritis (sum of the scores of the quadrupedal joints), Average value” (from here on “Clinical scoring of arthritis”) ([1]; day 0) was 0.00 and the “volume of the right hind foot, Average value” (“volume of the right hind foot” below) ([1]; day 0) was 1.30 mL. The “Clinical scoring of arthritis” value ([1]; day 8) was 0.44, the “volume of the right hind foot” value ([1]; day 8) was 1.38 mL and the “Clinical scoring of arthritis” value ([1]; day 11) was 4.33. The “volume of the right hind foot” value ([1]; day 11) was 2.14 mL, the “Clinical scoring of arthritis” value ([1]; day 13) was 7.33 and the “Clinical scoring of arthritis” value ([1]; day 15) was 9.00. The “volume of the right hind foot” value ([1]; day 15) was 2.88 mL, the “Clinical scoring of arthritis” value ([1]; day 18) was 10.22 and the “volume of the right hind foot” value ([1]; day 18) was 3.14 mL. For the same molecule, the “Clinical scoring of arthritis” value ([1]; day 21) was 10.78, the “Clinical scoring of arthritis” value ([1]; day 24) was 10.89 and the “Total area (AUC of changes in paw volume)” value [2] was 29.94. For the same molecule, the “Clinical scoring of arthritis” value ([2]; day 0, Tofacitinib 5 mpk) was 0, the “paw volume (right hind foot), Average value” (shortened to “paw volume (right hind foot)”) ([2]; day 0, Tofacitinib 5 mpk) was 1.02 mL and the “Clinical scoring of arthritis” value ([2]; day 7, Tofacitinib 5 mpk) was 0.75. The “paw volume (right hind foot)” value ([2]; day 7, Tofacitinib 5 mpk) was 1.98 mL, the “Clinical scoring of arthritis” value ([2]; day 13, Tofacitinib 5 mpk) was 1.75 and the “paw volume (right hind foot)” value ([2]; day 13, Tofacitinib 5 mpk) was 2.10 mL. The “Clinical scoring of arthritis” value ([2]; day 15, Tofacitinib 5 mpk) was 5.50, the “paw volume (right hind foot)” value ([2]; day 15, Tofacitinib 5 mpk) was 2.28 mL and the “Clinical scoring of arthritis” value ([2]; day 17, Tofacitinib 5 mpk) was 7.00. For the same molecule, the “paw volume (right hind foot)” value ([2]; day 17, Tofacitinib 5 mpk) was 2.43 mL, the “Clinical scoring of arthritis” value ([2]; day 20, Tofacitinib 5 mpk) was 7.50 and the “paw volume (right hind foot)” value ([2]; day 20, Tofacitinib 5 mpk) was 2.48 mL. The “Clinical scoring of arthritis” value ([2]; day 22, Tofacitinib 5 mpk) was 7.63, the “paw volume (right hind foot)” value ([2]; day 22, Tofacitinib 5 mpk) was 2.50 mL and the “Clinical scoring of arthritis” value ([2]; day 24, Tofacitinib 5 mpk) was 7.63. The “paw volume (right hind foot)” value ([2]; day 24, Tofacitinib 5 mpk) was 2.56 mL, the “Clinical scoring of arthritis” value ([2]; day 27, Tofacitinib 5 mpk) was 7.50 and the “paw volume (right hind foot)” value ([2]; day 27, Tofacitinib 5 mpk) was 2.62 mL. For the same molecule, the “Clinical scoring of arthritis” value ([2]; day 29, Tofacitinib 5 mpk) was 7.63, the “paw volume (right hind foot)” value ([2]; day 29, Tofacitinib 5 mpk) was 2.65 mL and the “Clinical scoring of arthritis” value ([2]; day 31, Tofacitinib 5 mpk) was 7.63. The “paw volume (right hind foot)” value ([2]; day 31, Tofacitinib 5 mpk) was 2.66 mL, the “Clinical scoring of arthritis” value ([2]; day 34, Tofacitinib 5 mpk) was 7.50 and the “paw volume (right hind foot)” value ([2]; day 34, Tofacitinib 5 mpk) was 1.02 mL. For the same molecule, the main side effects ([3]; rheumatoid arthritis therapy) was “liver and gastrointestinal toxicity” and the “patients who stop taking the drug because of side effects” value ([3]; within a year) was “about 50%”.

For `O=c1[nH]c2ccccc2n1C1CCN(CCCC(c2ccc(F)cc2)c2ccc(F)cc2)CC1` [Nib1, Pimozide], the “Relative to G2 percentage (%) (AUC of changes in paw volume)” value ([1]; Embodiment 3) was 74.9%, the “change ratio of ΔAUC relative to the vehicle group, as fraction” value ([1]; Embodiment 3, methotrexate 0.05 mg/kg, Nib1 1 mg/kg) was 0.749 and the “Area … (ml*day) of changes in paw volume” value ([1]; Embodiment 3) was 14.26 mL·days. For the same molecule, the “Clinical scoring of arthritis” value ([1]; day 0) was 0.00, the “volume of the right hind foot” value ([1]; day 0) was 1.31 mL and the “Clinical scoring of arthritis” value ([1]; day 8) was 0.78. For the same molecule, the “volume of the right hind foot” value ([1]; day 8) was 1.44 mL, the “Clinical scoring of arthritis” value ([1]; day 11) was 3.33 and the “volume of the right hind foot” value ([1]; day 11) was 1.79 mL. For the same molecule, the “Clinical scoring of arthritis” value ([1]; day 13) was 5.22, the “Clinical scoring of arthritis” value ([1]; day 15) was 6.33 and the “volume of the right hind foot” value ([1]; day 15) was 2.41 mL. The “Clinical scoring of arthritis” value ([1]; day 18) was 7.89, the “volume of the right hind foot” value ([1]; day 18) was 2.73 mL and the “Clinical scoring of arthritis” value ([1]; day 21) was 8.56. The “volume of the right hind foot” value ([1]; day 22) was 3.10 mL, the “Clinical scoring of arthritis” value ([1]; day 24) was 8.67 and the “Relative to G2 percentage (%) (AUC of changes in paw volume)” value [2] was 56.9%. The “Total area (AUC of changes in paw volume)” value [2] was 21.32, the “Clinical scoring of arthritis” value ([2]; day 0, Tofacitinib 5 mpk) was 0 and the “paw volume (right hind foot)” value ([2]; day 0, Tofacitinib 5 mpk) was 1.02 mL. The “Clinical scoring of arthritis” value ([2]; day 7, Tofacitinib 5 mpk) was 0.63, the “paw volume (right hind foot)” value ([2]; day 7, Tofacitinib 5 mpk) was 1.71 mL and the “Clinical scoring of arthritis” value ([2]; day 13, Tofacitinib 5 mpk) was 1.75. For the same molecule, the “paw volume (right hind foot)” value ([2]; day 13, Tofacitinib 5 mpk) was 1.88 mL, the “Clinical scoring of arthritis” value ([2]; day 15, Tofacitinib 5 mpk) was 5.50 and the “paw volume (right hind foot)” value ([2]; day 15, Tofacitinib 5 mpk) was 1.94 mL. The “Clinical scoring of arthritis” value ([2]; day 17, Tofacitinib 5 mpk) was 6.75, the “paw volume (right hind foot)” value ([2]; day 17, Tofacitinib 5 mpk) was 2.05 mL and the “Clinical scoring of arthritis” value ([2]; day 20, Tofacitinib 5 mpk) was 7.00. The “paw volume (right hind foot)” value ([2]; day 20, Tofacitinib 5 mpk) was 2.05 mL, the “Clinical scoring of arthritis” value ([2]; day 22, Tofacitinib 5 mpk) was 7.25 and the “paw volume (right hind foot)” value ([2]; day 22, Tofacitinib 5 mpk) was 2.00 mL. For the same molecule, the “Clinical scoring of arthritis” value ([2]; day 24, Tofacitinib 5 mpk) was 7.25, the “paw volume (right hind foot)” value ([2]; day 24, Tofacitinib 5 mpk) was 2.06 mL and the “Clinical scoring of arthritis” value ([2]; day 27, Tofacitinib 5 mpk) was 7.00. The “paw volume (right hind foot)” value ([2]; day 27, Tofacitinib 5 mpk) was 2.20 mL, the “Clinical scoring of arthritis” value ([2]; day 29, Tofacitinib 5 mpk) was 6.88 and the “paw volume (right hind foot)” value ([2]; day 29, Tofacitinib 5 mpk) was 2.16 mL. The “Clinical scoring of arthritis” value ([2]; day 31, Tofacitinib 5 mpk) was 7.13, the “paw volume (right hind foot)” value ([2]; day 31, Tofacitinib 5 mpk) was 2.16 mL and the “Clinical scoring of arthritis” value ([2]; day 34, Tofacitinib 5 mpk) was 6.88. For the same molecule, the “paw volume (right hind foot)” value ([2]; day 34, Tofacitinib 5 mpk) was 1.02 mL, the “the therapeutic effects compared with vehicle group (paw volume x time AUC %)” value ([4]; methotrexate 0.5 mg/kg intraperitoneal once per week, Nib1 10 mg/kg oral once every two days) was 66.6% and the “paw volume AUC relative to vehicle group, as fraction” value ([4]; methotrexate 0.5 mg/kg intraperitoneal, Nib1 10 mg/kg oral) was 0.666. The “changes in body weight over time (Table 5, FIG. 5)” value [5] was “decreased significantly in the initial stage, and gradually recovered in the later stage” and the “changes in body weight over time (FIG. 1)” value [6] was “lower than other groups, but there was no significant difference”.

For `C[C@@H]1CCN(C(=O)CC#N)C[C@@H]1N(C)c1ncnc2[nH]ccc12` [Tofacitinib], the “Relative to G2 percentage (%) (AUC of changes in paw volume)” value ([1]; Embodiment 3) was 59.2%, the “Area … (ml*day) of changes in paw volume” value ([1]; Embodiment 3) was 11.27 mL·days and the “Clinical scoring of arthritis” value ([1]; day 0) was 0.00. For the same molecule, the “volume of the right hind foot” value ([1]; day 0) was 1.31 mL, the “Clinical scoring of arthritis” value ([1]; day 8) was 0.33 and the “volume of the right hind foot” value ([1]; day 8) was 1.40 mL. The “Clinical scoring of arthritis” value ([1]; day 11) was 2.67, the “volume of the right hind foot” value ([1]; day 11) was 1.76 mL and the “Clinical scoring of arthritis” value ([1]; day 13) was 4.33. For the same molecule, the “Clinical scoring of arthritis” value ([1]; day 15) was 5.67, the “volume of the right hind foot” value ([1]; day 15) was 2.27 mL and the “Clinical scoring of arthritis” value ([1]; day 18) was 6.33. For the same molecule, the “volume of the right hind foot” value ([1]; day 18) was 2.40 mL, the “Clinical scoring of arthritis” value ([1]; day 21) was 6.22 and the “volume of the right hind foot” value ([1]; day 22) was 2.52 mL. For the same molecule, the “Clinical scoring of arthritis” value ([1]; day 24) was 5.33, the “Relative to G2 percentage (%) (AUC of changes in paw volume)” value [2] was 44.3% and the “Total area (AUC of changes in paw volume)” value [2] was 16.61. The “Clinical scoring of arthritis” value ([2]; day 0, Tofacitinib 5 mpk) was 0, the “paw volume (right hind foot)” value ([2]; day 0, Tofacitinib 5 mpk) was 1.01 mL and the “Clinical scoring of arthritis” value ([2]; day 7, Tofacitinib 5 mpk) was 0.50. The “paw volume (right hind foot)” value ([2]; day 7, Tofacitinib 5 mpk) was 1.57 mL, the “Clinical scoring of arthritis” value ([2]; day 13, Tofacitinib 5 mpk) was 1.38 and the “paw volume (right hind foot)” value ([2]; day 13, Tofacitinib 5 mpk) was 1.80 mL. The “Clinical scoring of arthritis” value ([2]; day 15, Tofacitinib 5 mpk) was 3.50, the “paw volume (right hind foot)” value ([2]; day 15, Tofacitinib 5 mpk) was 1.81 mL and the “Clinical scoring of arthritis” value ([2]; day 17, Tofacitinib 5 mpk) was 4.88. The “paw volume (right hind foot)” value ([2]; day 17, Tofacitinib 5 mpk) was 1.85 mL, the “Clinical scoring of arthritis” value ([2]; day 20, Tofacitinib 5 mpk) was 5.13 and the “paw volume (right hind foot)” value ([2]; day 20, Tofacitinib 5 mpk) was 1.90 mL. For the same molecule, the “Clinical scoring of arthritis” value ([2]; day 22, Tofacitinib 5 mpk) was 5.25, the “paw volume (right hind foot)” value ([2]; day 22, Tofacitinib 5 mpk) was 1.89 mL and the “Clinical scoring of arthritis” value ([2]; day 24, Tofacitinib 5 mpk) was 4.75. For the same molecule, the “paw volume (right hind foot)” value ([2]; day 24, Tofacitinib 5 mpk) was 1.81 mL, the “Clinical scoring of arthritis” value ([2]; day 27, Tofacitinib 5 mpk) was 4.50 and the “paw volume (right hind foot)” value ([2]; day 27, Tofacitinib 5 mpk) was 1.76 mL. For the same molecule, the “Clinical scoring of arthritis” value ([2]; day 29, Tofacitinib 5 mpk) was 4.38, the “paw volume (right hind foot)” value ([2]; day 29, Tofacitinib 5 mpk) was 1.74 mL and the “Clinical scoring of arthritis” value ([2]; day 31, Tofacitinib 5 mpk) was 4.38. For the same molecule, the “paw volume (right hind foot)” value ([2]; day 31, Tofacitinib 5 mpk) was 1.71 mL, the “Clinical scoring of arthritis” value ([2]; day 34, Tofacitinib 5 mpk) was 4.25 and the “paw volume (right hind foot)” value ([2]; day 34, Tofacitinib 5 mpk) was 1.01 mL.
